Assay results from US9018383B2, “Acylamino-substituted cyclic carboxylic acid derivatives and their use as pharmaceuticals” (Sanofi, priority 2009, dated 2015).

Biological target: human Edg-2 receptor (Homo sapiens, UniProt Q92633)
Test: Determination of Edg-2 receptor inhibition by FLIPR measurements (LPA-mediated calcium liberation)
Assay type: cell-based
Conditions: CHO cells overexpressing human Edg-2 receptor, LPA 100 nM, fluo-4 calcium fluorescence; read-out: Inhibitory concentrations IC50 for inhibition of the Edg-2 receptor
Method: A) Determination of Edg-2 Receptor Inhibition by Fluorescence Imaging Plate Reader (FLIPR) Measurements
The inhibition of the Edg-2 receptor (LPA1 receptor) by the compounds of the invention was quantified by the inhibitory effect on the LPA-mediated calcium liberation in a cell-based calcium fluorescence assay by use of Chinese hamster ovarian (CHO) cells in which the human Edg-2 receptor was stably overexpressed (Flp-In system, Invitrogen). […] Changes in intracellular calcium were determined by fluorescence measurement with the calcium-sensitive dye fluo-4 (Invitrogen) in a fluorescence imaging plate reader (FLIPR, […]).
CHO cells stably overexpressing the human Edg-2 receptor were seeded (40.000 per well) in black clear-bottomed poly-D-lysine-coated 96 well plates (Becton Dickinson, Biocoat cellware) approximately 18-24 h prior to the experiments. Cells were grown in an incubator at 37° C., 5% carbon dioxide and 95% humidity in cell culture media based on F-12 glutamax media (Gibco, #31765) supplemented with 1% (vol/vol) penicilline/streptomycine (PAN, #P06-07100), 10% (vol/vol) fetal calf serum (FCS, PAA, #A15-151) and hygromycin B (Invitrogen, #10687-010) 300 mg/l (final concentrations).
Prior to the FLIPR experiment, cells were loaded with fluo-4 acetoxymethyl ester (fluo-4 AM, Invitrogen, #F14202) for 60 min in an incubator at 37° C., 5% carbon dioxide and 95% humidity in dye-loading buffer consisting of Hanks' Balanced Salt Solution (HBSS, Invitrogen, #14065049) supplemented with fluo-4 AM at 2 μM (all data given for final concentration), Pluronic® F-127 0.05% (vol/vol) (Invitrogen, #P-3000 MP), HEPES 20 mM (Gibco, #15630), probenecid 2.5 mM (Sigma, #P-8761) and bovine serum albumin 0.05% (BSA, Sigma, #A-6003), adjusted to pH 7.5 with sodium hydroxide. During cell loading, fluo-4 AM is cleaved by intracellular esterase resulting in trapping of the dye fluo-4 within the cells. Loading was terminated by washing of the cells in a cell washer (Tecan Power washer) three times with the buffer specified afore but without fluo-4 AM and BSA. This latter buffer was also used as the buffer in the subsequent cell fluorescence measurements.
The dye-loaded and washed cells were pre-incubated for approximately 5 min with various concentrations of the test compound added as a solution in DMSO (0.3% vol/vol maximum final concentration of DMSO), or with DMSO in the respective concentration only (positive control). Subsequent addition of LPA (18:1, 1-oleoyl-sn-glycerol 3-phosphate; 100 nM final concentration) leads to liberation of intracellular calcium from internal stores resulting in a large transient increase of the fluo-4 fluorescence signal which was monitored over approximately 3 min. The percent inhibition caused by the test compound was determined from the maximum fluorescence response after LPA addition to cells pre-incubated with the compound as compared to the maximum fluorescence response after LPA addition to cells pre-incubated with DMSO only. All fluorescence values were corrected for the baseline fluorescence values obtained with cells which were pre-incubated with DMSO only and were not treated with LPA (baseline control). All measurements were performed in triplicate. From the percent inhibitions the inhibitory concentration IC50 was determined.

Chain of human Edg-2 receptor (Q92633 whole entry): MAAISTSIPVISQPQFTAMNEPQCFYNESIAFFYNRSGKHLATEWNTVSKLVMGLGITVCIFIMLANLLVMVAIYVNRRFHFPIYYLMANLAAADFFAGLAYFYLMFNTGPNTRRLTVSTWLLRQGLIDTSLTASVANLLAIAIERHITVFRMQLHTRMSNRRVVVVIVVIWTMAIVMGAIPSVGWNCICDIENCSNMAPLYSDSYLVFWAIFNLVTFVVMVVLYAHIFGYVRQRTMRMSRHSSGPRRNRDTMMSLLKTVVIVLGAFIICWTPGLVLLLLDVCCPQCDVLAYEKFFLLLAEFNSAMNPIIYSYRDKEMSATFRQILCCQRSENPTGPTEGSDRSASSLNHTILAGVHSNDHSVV

| IC50 [nM] | SMILES |
| --- | --- |
| < 100 | COc1c(F)cc(C(=O)NC2(C(=O)O)CCCCCC2)cc1OCCc1cccc(C)c1 [Example 70, 1-[3-Fluoro-4-methoxy-5-(2-m-tolyl-ethoxy)-benzoylamino]-cycloheptanecarboxylic acid] |
| < 100 | COc1ccc(C(=O)NC2(C(=O)O)CCCCCC2)cc1OCC(F)(F)c1ccccc1 [Example 71, 1-[3-(2,2-Difluoro-2-phenyl-ethoxy)-4-methoxy-benzoylamino]-cycloheptanecarboxylic acid] |
| < 100 | COc1ccc(C(=O)NC2(C(=O)O)CCCCCC2)cc1CCCc1cccc(C)c1 [Example 72, 1-[4-Methoxy-3-(3-m-tolyl-propyl)-benzoylamino]-cycloheptanecarboxylic acid] |
| 1000 to 30000 | COc1ccc(C(=O)NC2(C(=O)O)CCCCCC2)cc1OCC(O)c1cccc(C)c1 (stereo not drawn) [Example 73, 1-[3-(2-Hydroxy-2-m-tolyl-ethoxy)-4-methoxy-benzoylamino]-cycloheptanecarboxylic acid] |
| < 100 | COc1ccc(C(=O)NC2(C(=O)O)CCC=CCC2)cc1OCCc1cccc(C)c1 [Example 74, 1-[4-Methoxy-3-(2-m-tolyl-ethoxy)-benzoylamino]-cyclohept-4-enecarboxylic acid] |
| < 100 | COc1ccc(C(=O)NC2(C(=O)O)CCC3CC3CC2)cc1OCCc1cccc(C)c1 (stereo not drawn) [Example 75] |
| < 100 | COc1ccc(C(=O)NC2(C(=O)O)CC(C)C2)cc1OCCc1cccc(C)c1 (stereo not drawn) [Example 76, 1-[4-Methoxy-3-(2-m-tolyl-ethoxy)-benzoylamino]-3-methyl-cyclobutanecarboxylic acid] |
| < 100 | COc1ncc(C(=O)NC2(C(=O)O)CCCCCC2)cc1OCCc1cccc(C)c1 [Example 77, 1-{[6-Methoxy-5-(2-m-tolyl-ethoxy)-pyridine-3-carbonyl]-amino}-cycloheptanecarboxylic acid] |
| 100 to 1000 | COc1ncc(C(=O)NC2(C(=O)O)CCCCCCC2)cc1OCCc1cccc(C)c1 [Example 78, 1-{[6-Methoxy-5-(2-m-tolyl-ethoxy)-pyridine-3-carbonyl]-amino}-cyclooctanecarboxylic acid] |
| < 100 | COc1ncc(C(=O)N[C@]2(C(=O)O)CC[C@H](C)CC2)cc1OCCc1cccc(C)c1 [Example 79, cis-1-{[6-Methoxy-5-(2-m-tolyl-ethoxy)-pyridine-3-carbonyl]-amino}-4-methyl-cyclohexanecarboxylic acid] |
| < 100 | COc1ncc(C(=O)N[C@]2(C(=O)O)CC[C@@H](C)CC2)cc1OCCc1cccc(C)c1 [Example 80, trans-1-{[6-Methoxy-5-(2-m-tolyl-ethoxy)-pyridine-3-carbonyl]-amino}-4-methyl-cyclohexanecarboxylic acid] |
| < 100 | COc1ncc(C(=O)N[C@]2(C(=O)O)CC[C@@H](C)CC2)cc1OCCc1cc(Cl)ccc1F [Example 81, trans-1-({5-[2-(5-Chloro-2-fluoro-phenyl)-ethoxy]-6-methoxy-pyridine-3-carbonyl}-amino)-4-methyl-cyclohexanecarboxylic acid] |
| < 100 | COc1ncc(C(=O)N[C@]2(C(=O)O)CC[C@@H](C)CC2)cc1OCCc1cc(OC(F)(F)F)ccc1F [Example 82, trans-1-({5-[2-(2-Fluoro-5-trifluoromethoxy-phenyl)-ethoxy]-6-methoxy-pyridine-3-carbonyl}-amino)-4-methyl-cyclohexanecarboxylic acid] |
| < 100 | COc1ncc(C(=O)N[C@]2(C(=O)O)CC[C@@H](C)CC2)cc1OCCc1ccccc1 [Example 83, trans-1-{[6-Methoxy-5-(2-phenyl-ethoxy)-pyridine-3-carbonyl]-amino}-4-methyl-cyclohexanecarboxylic acid] |
| 1000 to 30000 | COc1ncc(C(=O)N[C@]2(C(=O)O)CC[C@@H](C)CC2)cc1OCCc1cc(C)ccc1C [Example 84, trans-1-({5-[2-(2,5-Dimethyl-phenyl)-ethoxy]-6-methoxy-pyridine-3-carbonyl}-amino)-4-methyl-cyclohexanecarboxylic acid] |
